Measured values from publication PMC12621019, “Restructuring Antiviral Quinazolinone Frameworks to Derive and Optimize Inhibitors of Chikungunya Virus” (ACS Medicinal Chemistry Letters, 2025).
≈ marks a conversion by molar mass, not a printed value.

Tests used:
physchem = details: pH 7.4
[1] = system: CHIKV (strain 181/25mKate); experiment: microbe, parasite or virus in culture; format: cell-based; details: Chikungunya virus, NHDF; for log reduction at 10 µM: 72 h, read-out: titer redn, log
Mouse plasma stability = details: male, CD-1, mouse
[2] = Plasma protein binding (equilibrium dialysis); details: male, CD-1, mouse
[3] = Liver microsomal stability; details: CD-1, mouse, microsomes
[4] = Kinetic solubility determination; details: for solubility kinetic at 24 h: pH 7.4, aqueous buffer, kinetic from dmso stock
[5] = Cytotoxicity assay (CellTiter Glo) in NHDF cells; details: human, CC50, NHDF cells, maximum 40 μM
[6] = Cytotoxicity in Vero E6 cells (live cell count, high-content imaging); details: African green monkey
NHDF cells = experiment: Cytotoxicity assay (CellTiter Glo) in NHDF cells; details: NHDF cells, 72 h; maximum 40 μM

SMILES | logD (physchem) | log reduction at 10 µM [1] | half-life (Mouse plasma stability) | fraction unbound at 4 h, 2 μM [2] | half-life [3] | solubility kinetic at 24 h [4] | CC50 at 72 h [5] | CC50 at 20 h [6] | EC50 ([1]; read-out: EC50 (titer reduction assay, dose response)) | boost in aqueous solubility compared to rac-1x ([4]; PBS buffer, pH 7.4) | CC50 (NHDF cells)
CC(C)N1CCN(c2cc3nc(C4CCCCN4)n(-c4ccc(Cl)cc4)c(=O)c3cc2Cl)CC1 (racemic) [rac-1x] | 2.3 | ~4 | > 4.82 h | 0.033 | > 2.42 h | 34.6 µM (≈ 17.3 µg/mL) | 20.9 µM | – | – | – | –
COc1c(F)cc(-n2c([C@H]3CCCCN3)nc3cc(N4CCN(C(C)C)CC4)c(Cl)cc3c2=O)cc1F [(R)-1h] | – | 4.1 | > 4 h | 0.232 | > 2.42 h | 183 µM (≈ 97.4 µg/mL) | ~19 µM | > 20 µM | 0.86 µM | 5 fold | 18.6 µM
